Experimental data published in ChEMBL document CHEMBL1156989, “Discovery of novel small molecule orally bioavailable C-X-C chemokine receptor 4 antagonists that are potent inhibitors of T-tropic (X4) HIV-1 replication” (J Med Chem, 2010).

Experiments:
[1] = system: Human immunodeficiency virus 1; experiment: Antiviral activity against HIV1 NL4.3 infected in human MT4 cells expressing CD4 and CXCR4 assessed as inhibition of virus-induced cytopathicity; type: functional, organism-based; settings: Human immunodeficiency virus 1, NL4.3, MT4
[2] = Cytotoxicity against human MT4 cells expressing CD4 and CXCR4 assessed as cell viability
[3] = target: C-X-C chemokine receptor type 4 (Homo sapiens, UniProt P61073); experiment: Antagonist activity at CXCR4 in human CEM-CCRF cells assessed as inhibition of SDF-1-induced calcium flux; type: functional, cell-based
Chain of C-X-C chemokine receptor type 4 (P61073 whole entry): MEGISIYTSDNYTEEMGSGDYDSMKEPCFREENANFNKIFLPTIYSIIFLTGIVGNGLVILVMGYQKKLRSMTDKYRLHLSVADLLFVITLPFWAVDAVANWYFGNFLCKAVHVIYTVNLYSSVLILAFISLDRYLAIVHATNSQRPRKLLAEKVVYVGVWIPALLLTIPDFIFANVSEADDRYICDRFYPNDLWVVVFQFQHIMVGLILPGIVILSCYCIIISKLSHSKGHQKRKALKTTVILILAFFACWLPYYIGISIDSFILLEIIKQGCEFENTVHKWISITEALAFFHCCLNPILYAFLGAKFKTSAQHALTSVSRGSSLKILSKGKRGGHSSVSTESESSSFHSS

[4] = MT4 cells expressing CD4 and CXCR4

| SMILES | IC50 [1] [µM] | IC50 [3] [µM] | CC50 [2, 4] [µM] | CC50 ([2]; mt4) [µM] |
| --- | --- | --- | --- | --- |
| c1ccc(CNCc2ccc(CN(Cc3nc4ccccc4o3)C3CCCc4cccnc43)cc2)nc1 (configuration not stated) | 9.1 | – | 204 | – |
| c1ccc(CNCc2ccc(CNC3CCCc4cccnc43)cc2)nc1 (configuration not stated) | 2.7 | – | – | – |
| NCCCC(=O)N(Cc1nc2ccccc2[nH]1)C1CCCc2cccnc21 (configuration not stated) | 2.64 | 3.2 | 152 | – |
| c1ccc(CN(Cc2ccc(CNCc3ccccn3)cc2)C2CCCc3cccnc32)cc1 (configuration not stated) | > 4.3 | – | 21 | – |
| NCCN(Cc1ccc(CNCc2ccccn2)cc1)C1CCCc2cccnc21 (configuration not stated) | > 25 | – | 126 | – |
| O=C(Nc1ccccn1)c1ccc(CN(Cc2nc3ccccc3[nH]2)C2CCCc3cccnc32)cc1 (configuration not stated) | 0.98 | – | 34.3 | – |
| c1ccc(CNCc2ccc(CN(CCCc3nc4ccccc4[nH]3)C3CCCc4cccnc43)cc2)nc1 (configuration not stated) | 1.2 | – | 101 | – |
| c1ccc(CNCc2ccc(CNC3CCCCc4cccnc43)cc2)nc1 (configuration not stated) | 2.5 | – | – | – |
| c1ccc(CNCc2ccc(CNC3CCc4cccnc43)cc2)nc1 (configuration not stated) | 14.1 | – | – | – |
| c1ccc(CNCc2ccc(CN(Cc3nc4ccccc4s3)C3CCCc4cccnc43)cc2)nc1 (configuration not stated) | 4.6 | – | 22.3 | – |
| c1ccc(CNCc2ccc(CN(Cc3ccccn3)C3CCc4cccnc43)cc2)nc1 (configuration not stated) | 4.9 | – | 124 | – |
| CNCCCCN(Cc1nc2ccccc2[nH]1)C1CCCc2cccnc21 (configuration not stated) | – | 0.19 | 28.2 | – |
| O=C(NCc1ccccn1)c1ccc(CN(Cc2nc3ccccc3[nH]2)C2CCCc3cccnc32)cc1 (configuration not stated) | 1.44 | – | 127 | – |
| c1ccc(CNCc2ccc(CN(Cc3cc4ccccc4[nH]3)C3CCCc4cccnc43)cc2)nc1 (configuration not stated) | 1.6 | – | 8 | – |
| c1ccc(CCN(Cc2ccc(CNCc3ccccn3)cc2)C2CCCc3cccnc32)nc1 (configuration not stated) | 2.1 | – | > 118 | – |
| c1ccc(CNCc2ccc(CN(CCc3nc4ccccc4[nH]3)C3CCCc4cccnc43)cc2)nc1 (configuration not stated) | 1.1 | – | 23.1 | – |
| c1ccc(CNCc2ccc(CN(Cn3cnc4ccccc43)C3CCCc4cccnc43)cc2)nc1 (configuration not stated) | 18.8 | – | 21 | – |

Continued, in another order:

| IC50 [1] [µM] | IC50 [3] [µM] | SMILES | CC50 [2, 4] [µM] | CC50 ([2]; mt4) [µM] |
| --- | --- | --- | --- | --- |
| 0.92 | – | c1ccc(CNCCN(Cc2ccc(CNCc3ccccn3)cc2)C2CCCc3cccnc32)cc1 (configuration not stated) | 23 | – |
| 0.774 | 0.442 | N#CCCCCN(Cc1nc2ccccc2[nH]1)C1CCCc2cccnc21 (configuration not stated) | – | 55.3 |
| 0.077 | 0.068 | NCCCN(Cc1nc2ccccc2[nH]1)C1CCCc2cccnc21 (configuration not stated) | 32.9 | – |
| 0.101 | 0.075 | NCCCCCCN(Cc1nc2ccccc2[nH]1)C1CCCc2cccnc21 (configuration not stated) | – | 30.2 |
| 0.17 | 0.973 | NCC#CCN(Cc1nc2ccccc2[nH]1)C1CCCc2cccnc21 (configuration not stated) | 10.8 | – |
| 0.074 | 0.514 | NCCCCCN(Cc1nc2ccccc2[nH]1)C1CCCc2cccnc21 (configuration not stated) | 30.2 | – |
| 0.27 | – | c1ccc(CNCc2ccc(CN(Cc3ccccn3)C3CCCc4cccnc43)cc2)nc1 (configuration not stated) | 44 | – |
| 0.0048 | – | NCCCCN(Cc1nc2ccccc2[nH]1)C1CCCc2cccnc21 (configuration not stated) | 160 | – |
| 0.2 | – | c1ccc(CNCc2ccc(CN(Cc3ncc[nH]3)C3CCCc4cccnc43)cc2)nc1 (configuration not stated) | 0.5 | – |
| 0.028 | 0.16 | NC/C=C/CN(Cc1nc2ccccc2[nH]1)C1CCCc2cccnc21 (configuration not stated) | 50.8 | – |
| 0.144 | – | NCCCCN(Cc1nc2ccccc2[nH]1)[C@@H]1CCCc2cccnc21 | – | – |
| 0.06 | – | c1ccc(CNCCN(Cc2ccc(CNCc3ccccn3)cc2)C2CCCc3cccnc32)nc1 (configuration not stated) | 21 | – |
| 0.095 | – | c1ccc(CNCc2ccc(CN(Cc3nc4ccccc4[nH]3)C3CCCc4cccnc43)cc2)cc1 (configuration not stated) | 26.4 | – |
| 0.66 | – | O=C(Nc1ccc(CN(Cc2nc3ccccc3[nH]2)C2CCCc3cccnc32)cc1)c1ccccn1 (configuration not stated) | 37.5 | – |
| 0.88 | – | O=C(NCc1ccc(CN(Cc2nc3ccccc3[nH]2)C2CCCc3cccnc32)cc1)c1ccccn1 (configuration not stated) | 36.8 | – |
